The subject of the experiment is P388 leukemia ip, CD2F1 mice, survival T/C. In words: NCI In Vivo Anticancer Drug Screen. Data for tumor model P388 Leukemia (intraperitoneal) in CD2F1 (CDF1) mice. The conditions noted are these: endpoint: median survival time, higher = longer survival. An outline of the steps:
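Mice carrying the transplanted tumor received test compound or vehicle. Survival was recorded in each group, and the value is the treated-group measurement divided by that of the vehicle-treated control group.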

Setting [1] is: dose: 25.0 mg/kg/injection, schedule: Q01DX009 (ip), vehicle: saline with Tween-80.
Setting [2] is: dose: 50.0 mg/kg/injection, schedule: Q01DX009 (ip), vehicle: saline with Tween-80.
Where [3] appears, read: dose: 100.0 mg/kg/injection, schedule: Q01DX009 (ip), vehicle: saline with Tween-80.
The mark [4] stands for this setting: dose: 50.0 mg/kg/injection, schedule: Q01DX009 (ip), vehicle: saline.
[5] abbreviates: dose: 100.0 mg/kg/injection, schedule: Q01DX009 (ip), vehicle: saline.
The mark [6] stands for this setting: dose: 50.0 mg/kg/injection, schedule: Q01DX005 (ip), vehicle: Klucel (hydroxypropylcellulose) (HPC).
[7] abbreviates: dose: 100.0 mg/kg/injection, schedule: Q01DX005 (ip), vehicle: Klucel (hydroxypropylcellulose) (HPC).
[8] abbreviates: dose: 200.0 mg/kg/injection, schedule: Q01DX005 (ip), vehicle: Klucel (hydroxypropylcellulose) (HPC).
The mark [9] stands for this setting: dose: 50.0 mg/kg/injection, schedule: Q01DX005 (ip), vehicle: saline with Tween-80.
Setting [10] is: dose: 100.0 mg/kg/injection, schedule: Q01DX005 (ip), vehicle: saline with Tween-80.
The mark [11] stands for this setting: dose: 100.0 mg/kg/injection, schedule: Q04DX002 (ip), vehicle: saline with Tween-80.
The mark [12] stands for this setting: dose: 200.0 mg/kg/injection, schedule: Q04DX002 (ip), vehicle: saline with Tween-80.
Setting [13] is: dose: 200.0 mg/kg/injection, schedule: Q01DX005 (ip), vehicle: saline with Tween-80.

T/C data for 22 molecules are collected here from PubChem BioAssay AID330 (DTP/NCI, 2004).

“And” between values parts separate entries of the source, which are not always exact repeats. Equal entries are not always repeated. Inconclusive results and toxic doses are left out. Bridge positions count the residues as written; N and C are the ends. Square brackets hold non-standard residues; d marks the D form. Peptide text beside a SMILES is read from it. NMeV = CN[CH](C(=O)O)C(C)C; Sar = CNCC(=O)O

As for `CN(C)CCOc1ccc2c(c1)C(=O)/C(=C\c1ncc([N+](=O)[O-])n1C)C2`, the T/C was 113 % of control (dose: 12.5 mg/kg/injection, schedule: Q01DX009 (ip), vehicle: saline with Tween-80); 123 % of control and 94 % of control under setting [1]; 121 % of control under setting [2]; 123 % of control under setting [3].

Take `CCCCNCCC(SS)c1ccc(Cl)cc1` (centres undefined): the T/C is, setting by setting: under setting [1], 110 % of control; under setting [2], 100 % of control; under setting [3], 100 % of control.

With `N#C/C(=C\c1cccs1)c1nc(-c2ccc(Cl)cc2)cs1`, the T/C reads like this: under setting [4], 91 % of control; under setting [5], 91 % of control.

Consider `COc1ccc2c(c1)OC(C)(C)C(c1ccccc1)C2c1ccc(OCCBr)c([N+](=O)[O-])c1` (centres undefined), for which the T/C under setting [6] was 101 % of control, the T/C under setting [7] is 105 % of control and the T/C under setting [8] was 97 % of control.

As to `CCSc1nc(N)c(C(=O)N2CCCCC2)s1`, the T/C was 99 % of control (dose: 50.0 mg/kg/injection, schedule: Q01DX009 (ip), vehicle: Klucel (hydroxypropylcellulose) (HPC)); 98 % of control (dose: 100.0 mg/kg/injection, schedule: Q01DX009 (ip), vehicle: Klucel (hydroxypropylcellulose) (HPC)); 105 % of control (dose: 200.0 mg/kg/injection, schedule: Q01DX009 (ip), vehicle: Klucel (hydroxypropylcellulose) (HPC)).

Regarding `O=c1c(CO)c(-c2ccccc2)oc2ccccc12`, the T/C was 115 % of control (dose: 100.0 mg/kg/injection, schedule: Q04DX002 (ip), vehicle: Klucel (hydroxypropylcellulose) (HPC)); 98 % of control (dose: 200.0 mg/kg/injection, schedule: Q04DX002 (ip), vehicle: Klucel (hydroxypropylcellulose) (HPC)); 101 % of control (dose: 400.0 mg/kg/injection, schedule: Q04DX002 (ip), vehicle: Klucel (hydroxypropylcellulose) (HPC)).

Take `CC[N+](C)(CC)CCl`: the T/C runs as follows: (dose: 7.5 mg/kg/injection, schedule: Q01DX005 (ip), vehicle: saline) 104 % of control; (dose: 15.0 mg/kg/injection, schedule: Q01DX005 (ip), vehicle: saline) 99 % of control.

Consider `O=C1c2ccccc2-c2nc3ccccc3nc21`, for which the T/C runs as follows: under setting [9], 94 % of control; under setting [10], 94 % of control.

On to `CC(C)=CCCC1(C)OC2(C)CCC1CC2` (centres undefined), for which the T/C runs as follows: (dose: 0.75 mg/kg/injection, schedule: Q01DX005 (ip), vehicle: Klucel (hydroxypropylcellulose) (HPC)) 95 % of control; (dose: 1.5 mg/kg/injection, schedule: Q01DX005 (ip), vehicle: Klucel (hydroxypropylcellulose) (HPC)) 95 % of control; (dose: 3.0 mg/kg/injection, schedule: Q01DX005 (ip), vehicle: Klucel (hydroxypropylcellulose) (HPC)) 99 % of control; (dose: 6.0 mg/kg/injection, schedule: Q01DX005 (ip), vehicle: Klucel (hydroxypropylcellulose) (HPC)) 96 % of control.

For the molecule `ONc1ccccc1C(F)(F)F`, the T/C was 97 % of control under setting [4] and 95 % of control under setting [5].

Regarding `COC(=O)C/C(C)=N/SC(c1ccccc1)(c1ccccc1)c1ccccc1`, the T/C under setting [11] is 95 % of control; the T/C under setting [12] was 101 % of control; the T/C (dose: 400.0 mg/kg/injection, schedule: Q04DX002 (ip), vehicle: saline with Tween-80) is 94 % of control.

For `CCCCCCCCC(Cn1ccnc1)c1ccc(F)cc1` (centres undefined), the T/C (dose: 50.0 mg/kg/injection, schedule: Q04DX003 (ip), vehicle: saline with Tween-80) was 106 % of control; the T/C (dose: 100.0 mg/kg/injection, schedule: Q04DX003 (ip), vehicle: saline with Tween-80) is 100 % of control and 103 % of control; the T/C (dose: 200.0 mg/kg/injection, schedule: Q04DX003 (ip), vehicle: saline with Tween-80) is 100 % of control.

For `COC(=O)c1c(-c2ccccc2)c(C=O)n(C)c1C`, the T/C under setting [9] was 99 % of control, the T/C under setting [10] is 98 % of control and the T/C under setting [13] is 91 % of control.

With `Cn1c(=O)c2c(ncn2-c2ccc(N)cc2)n(C)c1=O`, the T/C is 95 % of control (dose: 1.56 mg/kg/injection, schedule: Q01DX005 (ip), vehicle: water); 105 % of control (dose: 3.12 mg/kg/injection, schedule: Q01DX005 (ip), vehicle: water); 104 % of control (dose: 6.25 mg/kg/injection, schedule: Q01DX005 (ip), vehicle: other); 96 % of control (dose: 6.25 mg/kg/injection, schedule: Q01DX005 (ip), vehicle: water); 106 % of control (dose: 12.5 mg/kg/injection, schedule: Q01DX005 (ip), vehicle: other); 102 % of control (dose: 12.5 mg/kg/injection, schedule: Q01DX005 (ip), vehicle: water). Moreover, the T/C is 101 % of control (dose: 25.0 mg/kg/injection, schedule: Q01DX005 (ip), vehicle: other) and 101 % of control (dose: 50.0 mg/kg/injection, schedule: Q01DX005 (ip), vehicle: water).

As for `CN1CC(O)C2=CC(=O)C(=O)C=C21` (centres undefined), the T/C (dose: 30.0 mg/kg/injection, schedule: Q01DX005 (ip), vehicle: saline) is 117 % of control; the T/C (dose: 60.0 mg/kg/injection, schedule: Q01DX005 (ip), vehicle: saline) is 120 % of control; the T/C (dose: 120.0 mg/kg/injection, schedule: Q01DX005 (ip), vehicle: saline) is 119 % of control.

Regarding `O=c1c2ccccc2ncn1S(=O)(=O)c1ccc(N(CCCl)CCCl)cc1`, the T/C runs as follows: under setting [11], 110 % of control; under setting [12], 118 % of control.

For `CC(C)C1NC(=O)C(N)C(C)OC(=O)C(C(C)C)N(C)C(=O)CN(C)C(=O)C2CCCN2C1=O` (centres undefined) (tested in a mixture with another compound) (H-TVP[Sar][NMeV]; ester 1-C; configuration not given here), the T/C (dose: 15.0 micrograms/kg/injection, schedule: Q01DX009 (ip), vehicle: water) was 163 % of control; the T/C (dose: 31.0 micrograms/kg/injection, schedule: Q01DX009 (ip), vehicle: water) was 159 % of control; the T/C (dose: 62.0 micrograms/kg/injection, schedule: Q01DX009 (ip), vehicle: water) is 164 % of control; the T/C (dose: 110.0 micrograms/kg/injection, schedule: Q01DX009 (ip), vehicle: other) is 200 % of control; the T/C (dose: 125.0 micrograms/kg/injection, schedule: Q01DX009 (ip), vehicle: water) is 179 % of control; the T/C (dose: 165.0 micrograms/kg/injection, schedule: Q01DX009 (ip), vehicle: other) was 254 % of control. For the same molecule, the T/C is 180 % of control (dose: 250.0 micrograms/kg/injection, schedule: Q01DX009 (ip), vehicle: other) and 225 % of control (dose: 250.0 micrograms/kg/injection, schedule: Q01DX009 (ip), vehicle: water).

On to `Cc1ccc(NNC(=O)C(=O)O[C@H]2C(=O)OC[C@@H]2O)cc1`, for which the T/C under setting [6] is 100 % of control, the T/C under setting [7] is 100 % of control and the T/C under setting [8] was 93 % of control.

Regarding `N#CC1(C#N)C(c2ccccc2)C1(C#N)C#N`, the T/C (dose: 6.25 mg/kg/injection, schedule: Q04DX003 (ip), vehicle: saline sonified) was 115 % of control; the T/C (dose: 12.5 mg/kg/injection, schedule: Q04DX003 (ip), vehicle: saline sonified) is 110 % of control; the T/C (dose: 16.5 mg/kg/injection, schedule: Q04DX003 (ip), vehicle: saline with Tween-80) was 108 % of control; the T/C (dose: 25.0 mg/kg/injection, schedule: Q04DX003 (ip), vehicle: saline with Tween-80) is 112 % of control.

Take `CCOC(=O)NC(NC(=O)OCC)c1ccccc1`: the T/C reads like this: (dose: 100.0 mg/kg/injection, schedule: Q04DX003 (ip), vehicle: saline) 100 % of control; (dose: 200.0 mg/kg/injection, schedule: Q04DX003 (ip), vehicle: saline) 98 % of control; (dose: 400.0 mg/kg/injection, schedule: Q04DX003 (ip), vehicle: saline) 92 % of control.

With `COc1ccc(C2(c3ccc(OC)cc3)c3ccccc3C(=O)c3ccc(OC)cc32)cc1`, the T/C by setting is: under setting [9], 98 % of control; under setting [10], 100 % of control; under setting [13], 96 % of control.

On to `CC(C)(C)c1cc2c(O)c(c1)Cc1cc(C(C)(C)C)cc(c1O)Cc1cc(C(C)(C)C)cc(c1O)Cc1cc(C(C)(C)C)cc(c1O)Cc1cc(C(C)(C)C)cc(c1O)Cc1cc(C(C)(C)C)cc(c1O)Cc1cc(C(C)(C)C)cc(c1O)Cc1cc(C(C)(C)C)cc(c1O)C2`, for which the T/C is, setting by setting: under setting [6], 101 % of control; under setting [7], 90 % of control; under setting [8], 99 % of control.
